Values after ≈ are worked out from the molar mass of the structure shown.
Tests used:
Pseudomonas aeruginosa [1] = experiment: Antibacterial activity against Pseudomonas aeruginosa; format: functional, organism-based
Salmonella typhi = experiment: Antibacterial activity against Salmonella typhi; format: functional, Salmonella enterica subsp. enterica serovar Typhi; details: Salmonella enterica
Escherichia coli [2] = experiment: Antibacterial activity against Escherichia coli after 24 hrs by paper disc diffusion technique; format: functional
Staphylococcus aureus [3] = experiment: Antibacterial activity against Staphylococcus aureus after 24 hrs by paper disc diffusion technique; format: functional
[4] = test system: Staphylococcus epidermidis; experiment: Antibacterial activity against Staphylococcus epidermidis after 24 hrs by paper disc diffusion technique; format: functional
Micrococcus luteus = experiment: Antibacterial activity against Micrococcus luteus after 24 hrs by paper disc diffusion technique; format: functional
Klebsiella pneumoniae = experiment: Antibacterial activity against Klebsiella pneumoniae after 24 hrs by paper disc diffusion technique; format: functional
Pseudomonas aeruginosa [5] = experiment: Antibacterial activity against Pseudomonas aeruginosa after 24 hrs by paper disc diffusion technique; format: functional
Escherichia coli [6] = experiment: Antibacterial activity against Escherichia coli; format: functional, organism-based
Staphylococcus aureus [7] = experiment: Antibacterial activity against Staphylococcus aureus; format: functional, organism-based
Escherichia coli [8] = experiment: Antibacterial activity against Escherichia coli by two-fold serial dilution technique; format: functional
Bacillus subtilis = experiment: Antibacterial activity against Bacillus subtilis by two-fold serial dilution technique; format: functional
Pseudomonas aeruginosa [9] = experiment: Antibacterial activity against Pseudomonas aeruginosa by two-fold serial dilution technique; format: functional
Staphylococcus aureus [10] = experiment: Antibacterial activity against Staphylococcus aureus by two-fold serial dilution technique; format: functional
[11] = Escherichia coli, 24 h, read-out: MIC
[12] = Staphylococcus aureus, 24 h, read-out: MIC
[13] = Staphylococcus epidermidis, 24 h, read-out: MIC
[14] = Micrococcus luteus, 24 h, read-out: MIC
[15] = Klebsiella pneumoniae, 24 h, read-out: MIC
[16] = Pseudomonas aeruginosa, 24 h, read-out: MIC

Structure (SMILES): Cc1ccc(NC(=O)CN2C(=O)/C(=N\c3ccccc3)c3ccccc32)cc1C
- MIC (Pseudomonas aeruginosa [1]): 0.003 to 0.324 µM
- MIC (Salmonella typhi): 0.003 to 0.324 µM (≈ 0.00115 to 0.124 µg/mL)

Structure (SMILES): COc1cccc(NC(=O)CN2C(=O)/C(=N\c3ccccc3)c3ccccc32)c1
- MIC (Pseudomonas aeruginosa [1]): 0.003 to 0.324 µM
- MIC (Salmonella typhi): 0.003 to 0.324 µM (≈ 0.00116 to 0.125 µg/mL)

Structure (SMILES): CN(C)c1ccc(/C=N/c2ccc(/N=C3/C(=O)N(CN4CCN(c5cc6c(cc5F)c(=O)c(C(=O)O)cn6C5CC5)CC4)c4ccc(F)cc43)cc2)cc1
- MIC (Escherichia coli [2]; [11]): 7.81 to 125 µg/mL (≈ 10.7 to 171 µM)
- MIC (Staphylococcus aureus [3]; [12]): 7.81 to 125 µg/mL (≈ 10.7 to 171 µM)
- MIC [4, 13]: 7.81 to 125 µg/mL (≈ 10.7 to 171 µM)
- MIC (Micrococcus luteus; [14]): 7.81 to 125 µg/mL (≈ 10.7 to 171 µM)
- MIC (Klebsiella pneumoniae; [15]): 7.81 to 125 µg/mL (≈ 10.7 to 171 µM)
- MIC (Pseudomonas aeruginosa [5]; [16]): 7.81 to 125 µg/mL (≈ 10.7 to 171 µM)

Structure (SMILES): Cc1ccc(C)c(/N=C2\C(=O)N(CC(=O)Nc3ccc(C)c(C)c3)c3ccccc32)c1
- MIC (Pseudomonas aeruginosa [1]): 0.003 to 0.324 µM
- MIC (Salmonella typhi): 0.003 to 0.324 µM (≈ 0.00123 to 0.133 µg/mL)

Structure (SMILES): COc1cc(/C=N/c2ccc(/N=C3/C(=O)N(CN4CCN(c5cc6c(cc5F)c(=O)c(C(=O)O)cn6C5CC5)CC4)c4ccc(F)cc43)cc2)cc(OC)c1OC
- MIC (Escherichia coli [2]; [11]): 7.81 to 125 µg/mL (≈ 10.1 to 161 µM)
- MIC (Staphylococcus aureus [3]; [12]): 7.81 to 125 µg/mL (≈ 10.1 to 161 µM)
- MIC [4, 13]: 7.81 to 125 µg/mL (≈ 10.1 to 161 µM)
- MIC (Micrococcus luteus; [14]): 7.81 to 125 µg/mL (≈ 10.1 to 161 µM)
- MIC (Klebsiella pneumoniae; [15]): 7.81 to 125 µg/mL (≈ 10.1 to 161 µM)
- MIC (Pseudomonas aeruginosa [5]; [16]): 7.81 to 125 µg/mL (≈ 10.1 to 161 µM)

Structure (SMILES): Cc1c(C)c2c(c(C)c1O)CCC(C)(C(=O)N/N=C1\C(=O)Nc3ccc(F)cc31)O2 (stereo not given)
- MIC (Escherichia coli [6]): 12.5 to 100 µg/mL (≈ 30.4 to 243 µM)
- MIC (Pseudomonas aeruginosa [1]): 12.5 to 100 µg/mL
- MIC (Staphylococcus aureus [7]): 12.5 to 100 µg/mL (≈ 30.4 to 243 µM)

Structure (SMILES): O=C(O)c1cn(C2CC2)c2cc(N3CCN(CN4C(=O)/C(=N/c5ccc(/N=C/c6ccc(O)cc6)cc5)c5cc(F)ccc54)CC3)c(F)cc2c1=O
- MIC (Escherichia coli [2]): 7.81 to 15.62 µg/mL
- MIC (Escherichia coli [2]; [11]): 7.81 to 125 µg/mL (≈ 11.1 to 178 µM)
- MIC (Staphylococcus aureus [3]): 7.81 to 15.62 µg/mL
- MIC (Staphylococcus aureus [3]; [12]): 7.81 to 125 µg/mL (≈ 11.1 to 178 µM)
- MIC [4]: 7.81 to 15.62 µg/mL
- MIC [4, 13]: 7.81 to 125 µg/mL (≈ 11.1 to 178 µM)
- MIC (Micrococcus luteus): 7.81 to 15.62 µg/mL
- MIC (Micrococcus luteus; [14]): 7.81 to 125 µg/mL (≈ 11.1 to 178 µM)
- MIC (Klebsiella pneumoniae): 7.81 to 15.62 µg/mL
- MIC (Klebsiella pneumoniae; [15]): 7.81 to 125 µg/mL (≈ 11.1 to 178 µM)
- MIC (Pseudomonas aeruginosa [5]): 7.81 to 15.62 µg/mL
- MIC (Pseudomonas aeruginosa [5]; [16]): 7.81 to 125 µg/mL (≈ 11.1 to 178 µM)

Structure (SMILES): Cc1c(C)c2c(c(C)c1O)CCC(C)(C(=O)N/N=C1\C(=O)Nc3ccccc31)O2 (stereo not given)
- MIC (Escherichia coli [6]): 12.5 to 100 µg/mL (≈ 31.8 to 254 µM)
- MIC (Pseudomonas aeruginosa [1]): 12.5 to 100 µg/mL
- MIC (Staphylococcus aureus [7]): 12.5 to 100 µg/mL (≈ 31.8 to 254 µM)

Structure (SMILES): O=C(N/N=C1\C(=O)Nc2ccc([N+](=O)[O-])cc21)N/N=C1\C(=O)Nc2ccc([N+](=O)[O-])cc21
- MIC (Escherichia coli [8]): 6.25 to 100 µg/mL (≈ 14.3 to 228 µM)
- MIC (Bacillus subtilis): 6.25 to 100 µg/mL (≈ 14.3 to 228 µM)
- MIC (Pseudomonas aeruginosa [9]): 6.25 to 100 µg/mL (≈ 14.3 to 228 µM)
- MIC (Staphylococcus aureus [10]): 6.25 to 100 µg/mL (≈ 14.3 to 228 µM)

Structure (SMILES): Cc1c(C)c2c(c(C)c1O)CCC(C)(C(=O)N/N=C1\C(=O)Nc3ccc(Cl)cc31)O2 (stereo not given)
- MIC (Escherichia coli [6]): 12.5 to 100 µg/mL (≈ 29.2 to 234 µM)
- MIC (Pseudomonas aeruginosa [1]): 12.5 to 100 µg/mL
- MIC (Staphylococcus aureus [7]): 12.5 to 100 µg/mL (≈ 29.2 to 234 µM)

Structure (SMILES): O=C(N/N=C1\C(=O)N(Cc2ccccc2)c2ccccc21)N/N=C1\C(=O)N(Cc2ccccc2)c2ccccc21
- MIC (Escherichia coli [8]): 6.25 to 100 µg/mL (≈ 11.8 to 189 µM)
- MIC (Bacillus subtilis): 6.25 to 100 µg/mL (≈ 11.8 to 189 µM)
- MIC (Pseudomonas aeruginosa [9]): 6.25 to 100 µg/mL (≈ 11.8 to 189 µM)
- MIC (Staphylococcus aureus [10]): 6.25 to 100 µg/mL (≈ 11.8 to 189 µM)

Structure (SMILES): O=C(O)c1cn(C2CC2)c2cc(N3CCN(CN4C(=O)/C(=N/c5ccc(/N=C/c6ccccc6)cc5)c5cc(F)ccc54)CC3)c(F)cc2c1=O
- MIC (Escherichia coli [2]; [11]): 7.81 to 125 µg/mL (≈ 11.4 to 182 µM)
- MIC (Staphylococcus aureus [3]; [12]): 7.81 to 125 µg/mL (≈ 11.4 to 182 µM)
- MIC [4, 13]: 7.81 to 125 µg/mL (≈ 11.4 to 182 µM)
- MIC (Micrococcus luteus; [14]): 7.81 to 125 µg/mL (≈ 11.4 to 182 µM)
- MIC (Klebsiella pneumoniae; [15]): 7.81 to 125 µg/mL (≈ 11.4 to 182 µM)
- MIC (Pseudomonas aeruginosa [5]; [16]): 7.81 to 125 µg/mL (≈ 11.4 to 182 µM)

Structure (SMILES): Cc1ccc(NC(=O)CN2C(=O)/C(=N\c3cc(C)ccc3C)c3ccccc32)cc1
- MIC (Pseudomonas aeruginosa [1]): 0.003 to 0.324 µM
- MIC (Salmonella typhi): 0.003 to 0.324 µM (≈ 0.00119 to 0.129 µg/mL)

Structure (SMILES): COc1ccc(NC(=O)CN2C(=O)/C(=N\c3ccccc3)c3ccccc32)cc1
- MIC (Pseudomonas aeruginosa [1]): 0.003 to 0.324 µM
- MIC (Salmonella typhi): 0.003 to 0.324 µM (≈ 0.00116 to 0.125 µg/mL)

Structure (SMILES): O=C(N/N=C1\C(=O)Nc2ccc(Br)cc21)N/N=C1\C(=O)Nc2ccc(Br)cc21
- MIC (Escherichia coli [8]): 6.25 to 100 µg/mL (≈ 12.3 to 198 µM)
- MIC (Bacillus subtilis): 6.25 to 100 µg/mL (≈ 12.3 to 198 µM)
- MIC (Pseudomonas aeruginosa [9]): 6.25 to 100 µg/mL (≈ 12.3 to 198 µM)
- MIC (Staphylococcus aureus [10]): 6.25 to 100 µg/mL (≈ 12.3 to 198 µM)

Structure (SMILES): O=C(O)c1cn(C2CC2)c2cc(N3CCN(CN4C(=O)/C(=N/c5ccc(/N=C/c6ccccc6O)cc5)c5cc(F)ccc54)CC3)c(F)cc2c1=O
- MIC (Escherichia coli [2]; [11]): 7.81 to 125 µg/mL (≈ 11.1 to 178 µM)
- MIC (Staphylococcus aureus [3]; [12]): 7.81 to 125 µg/mL (≈ 11.1 to 178 µM)
- MIC [4, 13]: 7.81 to 125 µg/mL (≈ 11.1 to 178 µM)
- MIC (Micrococcus luteus; [14]): 7.81 to 125 µg/mL (≈ 11.1 to 178 µM)
- MIC (Klebsiella pneumoniae; [15]): 7.81 to 125 µg/mL (≈ 11.1 to 178 µM)
- MIC (Pseudomonas aeruginosa [5]; [16]): 7.81 to 125 µg/mL (≈ 11.1 to 178 µM)

Structure (SMILES): Cc1ccc(NC(=O)CN2C(=O)/C(=N\c3ccccc3)c3ccccc32)c(C)c1
- MIC (Pseudomonas aeruginosa [1]): 0.003 to 0.324 µM
- MIC (Salmonella typhi): 0.003 to 0.324 µM (≈ 0.00115 to 0.124 µg/mL)

Structure (SMILES): COc1cc(/C=N/c2ccc(/N=C3/C(=O)N(CN4CCN(c5cc6c(cc5F)c(=O)c(C(=O)O)cn6C5CC5)CC4)c4ccc(F)cc43)cc2)ccc1O
- MIC (Escherichia coli [2]; [11]): 7.81 to 125 µg/mL (≈ 10.7 to 171 µM)
- MIC (Staphylococcus aureus [3]; [12]): 7.81 to 125 µg/mL (≈ 10.7 to 171 µM)
- MIC [4, 13]: 7.81 to 125 µg/mL (≈ 10.7 to 171 µM)
- MIC (Micrococcus luteus; [14]): 7.81 to 125 µg/mL (≈ 10.7 to 171 µM)
- MIC (Klebsiella pneumoniae; [15]): 7.81 to 125 µg/mL (≈ 10.7 to 171 µM)
- MIC (Pseudomonas aeruginosa [5]; [16]): 7.81 to 125 µg/mL (≈ 10.7 to 171 µM)

Structure (SMILES): Cc1ccc2c(c1)/C(=N/NC(=O)N/N=C1\C(=O)Nc3ccc(C)cc31)C(=O)N2
- MIC (Escherichia coli [8]): 6.25 to 100 µg/mL (≈ 16.6 to 266 µM)
- MIC (Bacillus subtilis): 6.25 to 100 µg/mL (≈ 16.6 to 266 µM)
- MIC (Pseudomonas aeruginosa [9]): 6.25 to 100 µg/mL (≈ 16.6 to 266 µM)
- MIC (Staphylococcus aureus [10]): 6.25 to 100 µg/mL (≈ 16.6 to 266 µM)

Structure (SMILES): CC1(C)S[C@@H]2[C@H](NC(=O)Cc3ccccc3)C(=O)N2[C@H]1C(=O)O [PENICILLIN G]
- IC50 (Escherichia coli [6]): 631 µM
- IC50 (Pseudomonas aeruginosa [1]): 631 µM
- IC50 (Staphylococcus aureus [7]): 631 µM

Structure (SMILES): Cc1ccc2c(c1)/C(=N/NC(=O)N/N=C1\C(=O)N(Cc3ccccc3)c3ccc(C)cc31)C(=O)N2Cc1ccccc1
- MIC (Escherichia coli [8]): 6.25 to 100 µg/mL (≈ 11.2 to 180 µM)
- MIC (Bacillus subtilis): 6.25 to 100 µg/mL (≈ 11.2 to 180 µM)
- MIC (Pseudomonas aeruginosa [9]): 6.25 to 100 µg/mL (≈ 11.2 to 180 µM)
- MIC (Staphylococcus aureus [10]): 6.25 to 100 µg/mL (≈ 11.2 to 180 µM)

Structure (SMILES): Cc1ccc(C)c(/N=C2\C(=O)N(CC(=O)Nc3ccccc3C)c3ccccc32)c1
- MIC (Pseudomonas aeruginosa [1]): 0.003 to 0.324 µM
- MIC (Salmonella typhi): 0.003 to 0.324 µM (≈ 0.00119 to 0.129 µg/mL)

Structure (SMILES): Cc1ccc(NC(=O)CN2C(=O)/C(=N\c3ccccc3)c3ccccc32)cc1
- MIC (Pseudomonas aeruginosa [1]): 0.003 to 0.324 µM
- MIC (Salmonella typhi): 0.003 to 0.324 µM (≈ 0.00111 to 0.12 µg/mL)
